According to patent US20210017499A1, “SILOXANE POLYMER-BASED CANCER STEM CELL PREPARATION METHOD” (KOREA ADVANCED INSTITUTE OF SCIENCE AND TECHNOLOGY, priority 2019, published 2021):

Key:
Assay in all cases: Cell viability for doxorubicin (WST-1)
Type in all cases: cell-based, human
[1] = test system: ssiCSC (SKOV3, MCF-7, Hep3B and SW480); conditions: Dox of 50 μM, 24 hours, vs 2D control group
Description: (§1) ssiCSC spheroids prepared from different kinds of cancer cells (SKOV3, MCF-7, Hep3B and SW480) were isolated using trypsin (TrypLE Express, Gibco), and the isolated cells were washed with D-PBS twice. The ssiCSC was plated on a 96-well plate (1×10^4 cells/well) and was cultured in a cell growth medium at 37° C. for 24 hours. Then, the medium was removed, and a new medium comprising various concentrations of doxorubicin was added to each well and cultured for 24 hours. Next, each well was washed with D-PBS and was replaced with a new cell growth medium of 100 μl, and then WST-1 cell proliferation reagent (Roche) of 10 μl was added and cultured for 4 hours. Then, the absorbance at 450 nm (standard wavelength, 600 nm) was measured using a microplate reader (Molecular Devices).
(§2) In addition, the drug resistance of ssiCSC for doxorubicin (DOX) known as an anti-cancer agent was confirmed. Specifically, ssiCSC spheroids prepared by culturing on the pV4D4 surface for 8 days were isolated to single cells, and the cell was cultured on the conventional TCP surface to a 2D single layer, and then DOX at various concentrations was treated for 24 hours.

SKOV3-ssiCSC = conditions: DOX at various concentrations, 24 hours
Description: as §1, §2

SW480-ssiCSC = test system: SW480-ssiCSC
Description: as §1, §2

## COc1cccc2c1C(=O)c1c(O)c3c(c(O)c1C2=O)C[C@@](O)(C(=O)CO)C[C@@H]3O[C@H]1C[C@H](N)[C@H](O)[C@H](C)O1 [Dox, doxorubicin]
[1]
  drug resistance (cell viability): higher resistance
SKOV3-ssiCSC
  drug resistance (cell viability): complete resistance
SW480-ssiCSC; DOX at various concentrations, 24 hours
  drug resistance (cell viability): complete resistance
SW480-ssiCSC; subcultured on the TCP surface twice
  drug resistance after subculture: maintained drug resistance
SW480-ssiCSC; vs control group cancer cells without DOX
  cell viability: higher cell viability than the cancer cells of the control group in which DOX was not treated
